Like-named read-outs stand apart in the source and are kept apart here.
Columns and labels:
[1] = molecular target: T1, human GLP-1 receptor (hGLP-1R) (Homo sapiens, UniProt P43220); experiment: [125I]-GLP-1 binding, SPA with membranes of HEK293 cells expressing hGLP-1R
T1 construct: expressed in transfected cells; crude membranes

hGCGR = molecular target: T2, hGCGR (Homo sapiens, UniProt P47871); experiment: Functional cAMP formation (HTRF) in HEK-293 clonal cells expressing hGCGR, 0.1% bovine casein, without or with 1.0% human serum albumin; assay type: cell-based; settings: hGCGR EC50, nM (SEM, n), cAMP, 37° C.
T2 construct: expressed in transfected cells
T2 sequence (P47871 26-477): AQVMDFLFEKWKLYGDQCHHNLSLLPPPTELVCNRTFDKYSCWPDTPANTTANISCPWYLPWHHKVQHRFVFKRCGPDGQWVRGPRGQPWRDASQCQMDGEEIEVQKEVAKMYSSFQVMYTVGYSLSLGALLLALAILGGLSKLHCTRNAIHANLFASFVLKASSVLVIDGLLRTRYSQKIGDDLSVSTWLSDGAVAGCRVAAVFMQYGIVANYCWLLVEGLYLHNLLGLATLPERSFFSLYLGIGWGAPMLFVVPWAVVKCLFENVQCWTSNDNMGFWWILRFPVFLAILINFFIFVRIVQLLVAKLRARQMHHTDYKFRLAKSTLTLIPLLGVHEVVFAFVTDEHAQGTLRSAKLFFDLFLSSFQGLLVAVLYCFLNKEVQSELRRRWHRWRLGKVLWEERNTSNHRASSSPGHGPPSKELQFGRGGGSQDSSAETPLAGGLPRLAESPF
How it was run: (§1)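 Cells were stimulated with peptide for 30 min at 37° C, then lysed in buffer carrying cAMP-d2 and anti-cAMP Eu3+-cryptate for a competitive HTRF read after at least 60 min at room temperature. The 665/620 nm ratio was converted to nM cAMP against a standard curve.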

hGIPR = molecular target: T3, hGIPR (Homo sapiens, UniProt P48546); experiment: Functional cAMP formation (HTRF) in HEK-293 clonal cells expressing hGIPR, 0.1% bovine casein, without or with 1.0% human serum albumin; assay type: cell-based; settings: for Emax: percent of maximal response to GIP(1-42)NH2; for EC50: hGIPR EC50, nM (SEM, n), cAMP, 37° C.
T3 construct: expressed in transfected cells
T3 sequence (P48546 22-466): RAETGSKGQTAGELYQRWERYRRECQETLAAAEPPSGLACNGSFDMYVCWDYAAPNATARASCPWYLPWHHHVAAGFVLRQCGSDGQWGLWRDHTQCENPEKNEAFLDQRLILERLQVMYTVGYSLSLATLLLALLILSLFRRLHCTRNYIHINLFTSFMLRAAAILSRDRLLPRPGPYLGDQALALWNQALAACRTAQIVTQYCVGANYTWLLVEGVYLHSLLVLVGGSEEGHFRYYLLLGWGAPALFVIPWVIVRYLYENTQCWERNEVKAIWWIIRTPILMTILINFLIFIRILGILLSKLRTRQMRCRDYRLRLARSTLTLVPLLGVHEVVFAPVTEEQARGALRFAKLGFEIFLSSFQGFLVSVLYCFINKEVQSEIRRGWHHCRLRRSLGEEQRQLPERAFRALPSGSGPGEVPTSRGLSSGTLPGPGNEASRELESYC
How it was run: as §1

hGLP-1R = hGLP-1R (Homo sapiens, UniProt P43220); experiment: Functional cAMP formation (HTRF) in HEK-293 clonal cells expressing hGLP-1R, 0.1% bovine casein, without or with 1.0% human serum albumin; assay type: cell-based; design: expressed in transfected cells; settings: for Emax: percent of maximal response to GLP-1(7-36)NH2; for EC50: hGLP-1R EC50, nM (SEM, n), cAMP, 37° C., 0.1% bovine casein (no human serum albumin), geometric mean
Sequence of hGLP-1R (P43220 24-463): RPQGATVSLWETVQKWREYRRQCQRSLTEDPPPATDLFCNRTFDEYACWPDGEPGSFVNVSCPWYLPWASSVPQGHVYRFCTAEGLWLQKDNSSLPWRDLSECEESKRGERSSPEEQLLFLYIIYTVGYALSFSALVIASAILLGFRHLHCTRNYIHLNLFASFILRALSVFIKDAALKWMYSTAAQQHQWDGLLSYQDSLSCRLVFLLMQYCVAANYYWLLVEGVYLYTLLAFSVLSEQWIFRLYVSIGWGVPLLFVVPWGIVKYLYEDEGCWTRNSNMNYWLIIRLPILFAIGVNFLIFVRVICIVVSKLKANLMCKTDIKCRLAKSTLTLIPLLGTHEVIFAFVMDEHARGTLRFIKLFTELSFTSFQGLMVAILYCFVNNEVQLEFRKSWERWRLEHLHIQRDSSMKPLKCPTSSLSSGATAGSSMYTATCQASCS
How it was run: as §1

[2] = 0.1% bovine casein (no human serum albumin), geometric mean
[3] = 0.1% bovine casein and 1.0% human serum albumin, geometric mean (SEM, n)
[4] = HEK293, read-out: hGIPR Emax, % ± SEM, cAMP, 37° C., 0.1% bovine casein and 1.0% human serum albumin
[5] = HEK293, read-out: hGLP-1R Emax, % ± SEM, cAMP, 37° C., 0.1% bovine casein, arithmetic mean

T1 sequence (P43220 24-463): as above

Row | Compound | Ki [1] [nM] | EC50 (hGCGR; [2]) [nM] | EC50 (hGCGR; [3]) [nM] | Emax (hGIPR; [4]) [%] | EC50 (hGIPR; [2]) [nM] | Emax (hGLP-1R; HEK293, read-out: hGLP-1R Emax, % ± SEM, cAMP, 37° C., 0.1% bovine casein and 1.0% human serum albumin) [%] | Emax (hGLP-1R; [5]) [%] | EC50 (hGLP-1R) [nM] | Emax (hGIPR; HEK293, read-out: hGIPR Emax, % ± SEM, cAMP, 37° C., 0.1% bovine casein, arithmetic mean) [%] | EC50 (hGIPR; [3]) [nM]
1 | CC[C@H](C)[C@H](NC(=O)[C@H](CC(C)C)NC(=O)[C@](C)(Cc1ccc(O)cc1)NC(=O)[C@H](CCCCNC(=O)COCCOCCNC(=O)[C@H]1CC[C@H](CNC(=O)CC[C@H](NC(=O)CCCCCCCCCOc2ccc(C(=O)O)cc2)C(=O)O)CC1)NC(=O)[C@@H](NC(=O)[C@H](Cc1ccccc1)NC(=O)[C@H](CCCN)NC(=O)C(C)(C)NC(=O)[C@H](CCC(N)=O)NC(=O)[C@H](C)NC(=O)[C@H](CCC(N)=O)NC(=O)[C@H](CCCN)NC(=O)[C@H](CC(=O)O)NC(=O)[C@H](CC(C)C)NC(=O)[C@](C)(CC(C)C)NC(=O)[C@@H](NC(=O)C(C)(C)NC(=O)[C@H](Cc1ccncc1)NC(=O)[C@H](CC(=O)O)NC(=O)[C@H](CO)NC(=O)[C@@H](NC(=O)[C@](C)(Cc1ccccc1F)NC(=O)[C@@H](NC(=O)CNC(=O)[C@H](CCC(=O)O)NC(=O)C(C)(C)NC(=O)[C@@H](N)Cc1ccc(O)cc1)[C@@H](C)O)[C@@H](C)O)[C@@H](C)CC)[C@@H](C)CC)C(=O)N[C@@H](CCCCNC(=O)COCCOCCNC(=O)[C@H]1CC[C@H](CNC(=O)CC[C@H](NC(=O)CCCCCCCCCOc2ccc(C(=O)O)cc2)C(=O)O)CC1)C(=O)NCC(=O)NCC(=O)N1CCC[C@H]1C(=O)N[C@@H](CO)C(=O)N[C@@H](CO)C(=O)NCC(=O)N[C@@H](C)C(=O)N1CCC[C@H]1C(=O)N1CCC[C@H]1C(=O)N1CCC[C@H]1C(=O)N[C@@H](CO)C(N)=O [Example 473] | 0.169 | > 9950 | > 9950 | 92.8 | 0.0163 | 114 | 118 | 0.192 |  | 
2 | CC[C@H](C)[C@H](NC(=O)[C@H](CC(C)C)NC(=O)[C@](C)(Cc1ccc(O)cc1)NC(=O)[C@H](CCCCNC(=O)COCCOCCNC(=O)CC[C@H](NC(=O)COCCOCCNC(=O)CC[C@H](NC(=O)CCCCCCCCCOc1ccc(C(=O)O)cc1)C(=O)O)C(=O)O)NC(=O)[C@@H](NC(=O)[C@H](Cc1ccccc1)NC(=O)[C@H](CCCN)NC(=O)C(C)(C)NC(=O)[C@H](CCC(N)=O)NC(=O)[C@H](C)NC(=O)[C@H](CCC(N)=O)NC(=O)[C@H](CCCN)NC(=O)[C@H](CC(=O)O)NC(=O)[C@H](CC(C)C)NC(=O)[C@](C)(CC(C)C)NC(=O)[C@@H](NC(=O)C(C)(C)NC(=O)[C@H](Cc1ccncc1)NC(=O)[C@H](CC(=O)O)NC(=O)[C@H](CO)NC(=O)[C@@H](NC(=O)[C@](C)(Cc1ccccc1F)NC(=O)[C@@H](NC(=O)CNC(=O)[C@H](CCC(=O)O)NC(=O)C(C)(C)NC(=O)[C@@H](N)Cc1ccc(O)cc1)[C@@H](C)O)[C@@H](C)O)[C@@H](C)CC)[C@@H](C)CC)C(=O)N[C@@H](CCCCNC(=O)COCCOCCNC(=O)CC[C@H](NC(=O)COCCOCCNC(=O)CC[C@H](NC(=O)CCCCCCCCCOc1ccc(C(=O)O)cc1)C(=O)O)C(=O)O)C(=O)NCC(=O)NCC(=O)N1CCC[C@H]1C(=O)N[C@@H](CO)C(=O)N[C@@H](CO)C(=O)NCC(=O)N[C@@H](C)C(=O)N1CCC[C@H]1C(=O)N1CCC[C@H]1C(=O)N1CCC[C@H]1C(=O)N[C@@H](CO)C(N)=O [Example 485] | 0.3 | > 10100 | > 9950 | 93.8 | 0.0113 |  | 115 | 0.153 |  | 
3 | CC[C@H](C)[C@H](NC(=O)[C@H](CC(C)C)NC(=O)[C@](C)(Cc1ccc(O)cc1)NC(=O)[C@H](CCCCNC(=O)COCCOCCNC(=O)CC[C@H](NC(=O)CC[C@H](NC(=O)CC[C@H](NC(=O)CCCCCCCCCOc1ccc(C(=O)O)cc1)C(=O)O)C(=O)O)C(=O)O)NC(=O)[C@@H](NC(=O)[C@H](Cc1ccccc1)NC(=O)[C@H](CCCN)NC(=O)C(C)(C)NC(=O)[C@H](CCC(N)=O)NC(=O)[C@H](C)NC(=O)[C@H](CCC(N)=O)NC(=O)[C@H](CCCN)NC(=O)[C@H](CC(=O)O)NC(=O)[C@H](CC(C)C)NC(=O)[C@](C)(CC(C)C)NC(=O)[C@@H](NC(=O)C(C)(C)NC(=O)[C@H](Cc1ccncc1)NC(=O)[C@H](CC(=O)O)NC(=O)[C@H](CO)NC(=O)[C@@H](NC(=O)[C@](C)(Cc1ccccc1F)NC(=O)[C@@H](NC(=O)CNC(=O)[C@H](CCC(=O)O)NC(=O)C(C)(C)NC(=O)[C@@H](N)Cc1ccc(O)cc1)[C@@H](C)O)[C@@H](C)O)[C@@H](C)CC)[C@@H](C)CC)C(=O)N[C@@H](CCCCNC(=O)COCCOCCNC(=O)CC[C@H](NC(=O)CC[C@H](NC(=O)CC[C@H](NC(=O)CCCCCCCCCOc1ccc(C(=O)O)cc1)C(=O)O)C(=O)O)C(=O)O)C(=O)NCC(=O)NCC(=O)N1CCC[C@H]1C(=O)N[C@@H](CO)C(=O)N[C@@H](CO)C(=O)NCC(=O)N[C@@H](C)C(=O)N1CCC[C@H]1C(=O)N1CCC[C@H]1C(=O)N1CCC[C@H]1C(=O)N[C@@H](CO)C(N)=O [Example 487] | 0.217 | > 9950 | > 9950 | 89.1 | 0.0161 |  | 116 | 0.199 |  | 
4 | CC[C@H](C)[C@H](NC(=O)[C@H](CC(C)C)NC(=O)[C@](C)(Cc1ccc(O)cc1)NC(=O)[C@H](CCCCNC(=O)COCCOCCNC(=O)COCCOCCNC(=O)CC[C@H](NC(=O)CCCCCCCCCOc1ccc(C(=O)O)cc1)C(=O)O)NC(=O)[C@@H](NC(=O)[C@H](Cc1ccccc1)NC(=O)[C@H](Cc1ccncc1)NC(=O)C(C)(C)NC(=O)[C@H](CCC(N)=O)NC(=O)[C@H](C)NC(=O)[C@H](CCC(N)=O)NC(=O)[C@H](CCCN)NC(=O)[C@H](CC(=O)O)NC(=O)[C@H](CC(C)C)NC(=O)[C@](C)(CC(C)C)NC(=O)[C@@H](NC(=O)C(C)(C)NC(=O)[C@H](Cc1ccncc1)NC(=O)[C@H](CC(=O)O)NC(=O)[C@H](CO)NC(=O)[C@@H](NC(=O)[C@](C)(Cc1ccccc1F)NC(=O)[C@@H](NC(=O)CNC(=O)[C@H](CCC(=O)O)NC(=O)C(C)(C)NC(=O)[C@@H](N)Cc1ccc(O)cc1)[C@@H](C)O)[C@@H](C)O)[C@@H](C)CC)[C@@H](C)CC)C(=O)N[C@@H](CCCCNC(=O)COCCOCCNC(=O)COCCOCCNC(=O)CC[C@H](NC(=O)CCCCCCCCCOc1ccc(C(=O)O)cc1)C(=O)O)C(=O)NCC(=O)NCC(=O)N1CCC[C@H]1C(=O)N[C@@H](CO)C(=O)N[C@@H](CO)C(=O)NCC(=O)N[C@@H](C)C(=O)N1CCC[C@H]1C(=O)N1CCC[C@H]1C(=O)N1CCC[C@H]1C(=O)N[C@@H](CO)C(N)=O [Example 493] | 0.25 | > 9950 | > 9950 | 94.6 | 0.0155 |  | 126 | 0.184 | 105 | 0.591

— patent publication US20230265151A1, “GIP/GLP1 CO-AGONIST COMPOUNDS” (priority 2020, published 2023)
